“And” between values parts separate entries of the source, which are not always exact repeats. Equal values may be shown once. “Also recorded” adds a separate entry of the source. Read-outs that look alike come from different tables or passages of the source.
What was measured:
w794 DNA = assay: DNA alkylation studies, cell-free (thermally induced strand cleavage, PAGE autoradiography); assay type: biochemical; settings: for DNA alkylation: no deliberate activation
Procedure: DNA-agent incubation at 23° C. for 2 hours (h), removal of unbound agent by EtOH precipitation, and 30 minute thermolysis (100° C.) followed by 8% denaturing PAGE and autoradiography. Lane 1, control DNA; lanes 2-5, Sanger G, C, A, and T sequencing reactions; lane 6, Compound (+)-4 (1×10^−5 M); lane 7, Compound (+)-7 (1×10^−5 M); lanes 8-9, Compound (+)-7 (1×10^−5 M) incubated at 37° C. with 1 M L-glutathione for 12 hours and 24 hours.
DNA-agent incubation at 23° C. for 2 hours (h), removal of unbound agent by EtOH precipitation, and 30 minutes thermolysis (100° C.) followed by 8% denaturing PAGE and autoradiography.
Lane 1, control DNA; lanes 2-5, Sanger G, C, A, and T sequencing reactions; lanes 6-8, Compound (+)-4 (1×10^−4 to 1×10^−6 M); lanes 9-11, Compound (+)-6 (1×10^−2 to 1×10^−4 M).
Lane 1, control DNA; lanes 2-5, Sanger G, C, A, and T sequencing reactions; lanes 6-11, Compound (+)-4 (1×10^−4M, t=2, 4, 6, 8, 24, 48 hours); lanes 12-15, Compound (+)-6 (1×10^−2M, t=2, 4, 6, 8 hours).
Lane 1, control DNA; lanes 2-5, Sanger G, C, A, and T sequencing reactions; lane 6, Compound (+)-4 (1×10^−4 M); lanes 7-9, Compound (±)-19 (1×10^−3 to 1×10^−5 M).
See Boger et al., Tetrahedron 1991, 47:2661-2682 for full details of the DNA alkylation assay. The DNA alkylation reactions were conducted at […] with 5′-^32P-end-labeled w794 DNA, which contains a single major alkylation site for the natural products.

[1] = test system: L1210 (ATCC CCL-219) mouse lymphocytic leukemia cells; assay: Cell growth inhibition assay (phosphatase readout); assay type: cell-based
Procedure: Compounds were tested for their cell growth inhibition of L1210 (ATCC CCL-219) mouse lymphocytic leukemia cells. A population of cells (>1×10^6 cells/mL as determined with a hemocytometer) was diluted with an appropriate amount of Dulbecco-modified Eagle Medium (DMEM, Gibco) containing 10% fetal bovine serum (FBS, Gibco) to a final concentration of 30,000 cells/mL. To each well of a 96-well plate (Corning® Costar®), 100 μL of the cell-media solution was added with a multichannel pipette. The cultures were incubated at 37° C. in an atmosphere of 5% CO2 and 95% humidified air for 24 hours. The test compounds were added to the plate as follows: test substances were diluted in DMSO to a concentration of 1 mM and 10-fold serial dilutions were performed on a separate 96-well plate. Fresh culture medium (100 μL) was added to each well of cells to constitute 200 μL of medium per well followed by 2 μL of each test agent. Compounds were tested in duplicate (≧2 times) at six concentrations between 0-100 nM or 0-1000 nM. Following addition, cultures were incubated for an additional 72 hours.
A phosphatase assay was used to establish the IC50 values as follows: the media in each cell was removed and 100 μL of phosphatase solution (100 mg phosphatase substrate in 30 mL 0.1 M NaOAc, pH 5.5, 0.1% Triton® X-100 buffer) was added to each well. The plates were incubated at 37° C. for 5 minutes. After the given incubation time, 50 μL of 0.1 N NaOH was added to each well and the absorption at 405 nm was determined using a 96 well plate reader. As the absorption is directly proportional to the number of living cells, the IC50 values were calculated and the reported values represent of the average of ≧4 determinations (SD±10%).

[2] = test system: L1210 murine leukemia cells; assay: In vivo antitumor activity, L1210 implanted ip in B6D2F1 mice; parameters: species or system mouse
Procedure: [Wolfe et al., J. Med. Chem. 2012, 55:5878-5886.] Therefore, the preliminary evaluation of the in vivo antitumor activity of the cyclic N—O pro-drugs was assessed with Compound (+)-6 and was conducted alongside seco-CBI-indole2 (Compound 4) in an antitumor model consisting of L1210 murine leukemia cells implanted ip in B6D2F1 mice traditionally used to initially compare new duocarmycin derivatives (Table 3, below).
B6D2F1 mice were injected intraperitoneally (i.p.) with syngeneic L1210 cells (1×10^6) on day 0. Ten mice were randomly assigned to control vehicle or treatment groups for Compounds (+)-4 and (+)-6 at doses of 60, 100, 250, and 500 μg/kg/inj for Compounds (+)-4 or 60, 200, 500, 1000, and 2500 μg/kg/inj for Compounds (+)-6. Compounds (+)-4 and (+)-6 were formulated in 100% DMSO. Both compounds were injected i.p. on days 1, 5, and 9. Following injection of tumor cells, animals were monitored daily and weighed two times per week. Percent survival (T/C) for treated and control groups were determined by dividing the total survival days for each treatment group by the total survival days for the control group and multiplying×100. All animal studies were carried out in the animal facilities of The University of Kansas Medical Center with strict adherence to the guidelines of the IACUC Animal Welfare Committee of KUMC (IACUC approval #2009-1837).

physchem = settings: buffer
[3] = Stability to basic conditions (NaHCO3); assay type: physicochemical; settings: 23° C.
[4] = test system: L1210 murine leukemia cells; settings: literature dose range; cited from earlier work
[5] = Mus musculus, L1210, 72 h, read-out: IC50 L1210 natural, natural enantiomer, 72 hours
[6] = Mus musculus, L1210, 72 h, read-out: IC50 L1210 unnatural, unnatural enantiomer, 72 hours
[7] = 60 μg/kg i.p. on days 1, 5 and 9
[8] = 100 μg/kg i.p. on days 1, 5 and 9
[9] = 250 μg/kg i.p. on days 1, 5 and 9
[10] = 500 μg/kg i.p. on days 1, 5 and 9
[11] = 1000 μg/kg i.p. on days 1, 5 and 9
[12] = 2500 μg/kg i.p. on days 1, 5 and 9

CNC(=O)c1cccc2c3c(cc(O)c12)N(C(=O)c1cc2cc(NC(=O)c4cc5ccccc5[nH]4)ccc2[nH]1)CC3CCl (racemic) [Compound 19, 3-(5-(1H-Indole-2-carboxamido)-1H-indole-2-carbonyl)-1-(chloromethyl)-5-hydroxy-N-methyl-1,2-dihydrobenzo-[e]indole-6-carboxamide]
DNA alkylation (w794 DNA): alkylate DNA in a manner analogous to Compound (+)-4 | times less potent than seco-(+)-CBI-indole2 ([1]; L1210, racemic mixture): 2.5 times | IC50 ([1]; Mus musculus, L1210, 72 h, read-out: IC50 L1210, tested as a racemic mixture, 72 hours): 0.073 nM

CC(C)(C)OC(=O)N1CC2CC23C1=CC(=O)c1ccccc13 (single isomer, unassigned; (+)) [(+)-N—Boc-CBI, reference compound]
IC50 ([1]; natural enantiomer, 72 hours, read-out: IC50 L1210 natural): 80 nM | IC50 ([1]; unnatural enantiomer, 72 hours, read-out: IC50 L1210 unnatural): 900 nM

COC(=O)c1cc2c([nH]1)C(=O)C=C1N(C(=O)c3cc4cc(OC)c(OC)c(OC)c4[nH]3)C[C@H]3CC123 (stereo partly drawn) [Compound 1, Duocarmycin SA, reference compound]
IC50 [1, 5]: 0.01 nM | IC50 [1, 6]: 0.1 nM

COc1c(O)c2c(c3cc(C(=O)N4CCc5c4c(O)c(OC)c4[nH]c(C(=O)N6C[C@H]7CC78C6=CC(=O)c6[nH]cc(C)c68)cc54)[nH]c13)CCN2C(N)=O (stereo partly drawn) [Compound 2, CC-1065, reference compound]
IC50 [1, 5]: 0.02 nM | IC50 [1, 6]: 0.02 nM

O=C(Nc1ccc2[nH]c(C(=O)N3C[C@@H](CCl)c4c3cc(O)c3ccccc43)cc2c1)c1cc2ccccc2[nH]1 [Compound 4, seco-CBI-indole2, reference compound]
MSP (Mean Survival Period) [2, 7]: >50 days | Surviving Mice (live animals after 366 days) [2, 7]: 1/10 | T/C = Treated/Control (MSP) × 100 [2, 7]: >284 | MSP (Mean Survival Period) [2, 8]: 6.4 days | Surviving Mice (live animals after 366 days) [2, 8]: 0/10 | T/C = Treated/Control (MSP) × 100 [2, 8]: 36 | MSP (Mean Survival Period) [2, 9]: 3.7 days | Surviving Mice (live animals after 366 days) [2, 9]: 0/10 | T/C = Treated/Control (MSP) × 100 [2, 9]: 21 | MSP (Mean Survival Period) [2, 10]: 3.0 days | Surviving Mice (live animals after 366 days) [2, 10]: 0/10 | T/C = Treated/Control (MSP) × 100 [2, 10]: 17 | IC50 ([1]; Mus musculus, L1210, natural enantiomer, 72 hours, read-out: IC50 L1210 natural): 0.03 nM | IC50 ([1]; Mus musculus, L1210, unnatural enantiomer, 72 hours, read-out: IC50 L1210 unnatural): 0.9 nM

CN1Oc2cc3c(c4cccc(c24)C1=O)C(CCl)CN3C(=O)OC(C)(C)C (stereo not drawn) [Compound 12, tert-Butyl 10-(Chloromethyl)-5-methyl-4-oxo-9,10-dihydro-4H-pyrrolo[3′,2′:5,6]naphtho[1,8-de][1,2]oxazine-8(5H)-carboxylate]
half-life (physchem): 24 h | time unreactive toward NaHCO3 ([3]; NaHCO3 in THF, MeOH, DMF/H2O): more than 5 days | IC50 [1, 5]: 850 nM | IC50 [1, 6]: > 1000 nM

CC(C)(C)OC(=O)N1CC(CCl)c2c1cc1c3c(cccc23)C(=O)NO1 (stereo not drawn) [Compound 15, tert-Butyl 10-(Chloromethyl)-4-oxo-9,10-dihydro-4H-pyrrolo[3′,2′:5,6]naphtho[1,8-de][1,2]oxazine-8(5H)-carboxylate]
half-life (physchem): 2 h | half-life ([3]; NaHCO3 in MeOH, read-out: t1/2 with NaHCO3 (converted)): 70 h | stability to NaHCO3 ([3]; NaHCO3 in THF/H2O): stable | IC50 [1, 5]: 650 nM | IC50 [1, 6]: > 1000 nM

O=C(Nc1ccc2[nH]c(C(=O)N3C[C@@H](CCl)c4c3cc(O)c3ccccc43)cc2c1)c1cc2ccccc2[nH]1 [Compound (+)-4, seco-CBI-indole2, reference compound]
therapeutic window (dose range) [4]: 0.03 to 0.1 mg/kg | Surviving Mice (live animals after 366 days) [2, 7]: 1/10 | T/C = Treated/Control (MSP) × 100 [2, 7]: > 284 and 284 | toxicity in tumor-bearing mice ([2]; all higher doses (100-500 μg/kg)): proved toxic leading to premature death of the animals due to drug toxicity | toxicity in tumor-bearing mice ([2]; dosing at 60 to 500 μg/kg): premature death

CN1Oc2cc3c(c4cccc(c24)C1=O)[C@H](CCl)CN3C(=O)c1cc2cc(NC(=O)c3cc4ccccc4[nH]3)ccc2[nH]1 [Compound (+)-6, N-(2-(10-(Chloromethyl)-5-methyl-4-oxo-5,8,9,10-tetrahydro-4H-pyrrolo[3′,2′:5,6]naphtho[1,8-de][1,2]oxazine-8-carbonyl)-1H-indol-5-yl)-1H-indole-2-carboxamide]
DNA alkylation (w794 DNA): incapable of alkylating DNA | T/C = Treated/Control (MSP) × 100 ([2]; 200 μg/kg i.p. on days 1, 5 and 9): 386 | Surviving Mice (live animals after 366 days) [2, 10]: 4/10 | T/C = Treated/Control (MSP) × 100 [2, 10]: > 1142 | Surviving Mice (live animals after 366 days) [2, 11]: 4/10 | T/C = Treated/Control (MSP) × 100 [2, 11]: > 1130 | Surviving Mice (live animals after 366 days) [2, 12]: 6/10 | T/C = Treated/Control (MSP) × 100 [2, 12]: > 1500 | delayed toxicity in long term survivors ([2]; 366 days (1 year)): no evidence of a delayed toxicity | tolerance at the injection sites ([2]; i.p. administration, versus free drug): tolerated at the injection sites of the animals much better than the free drug | dosing permitted over that of the free drug ([2]; versus free drug): ≥ 40 fold | in vivo potency relative to the free drug ([2]; versus free drug): ≤ 3 fold | difference in potency between Compound (+)-6 and Compound (+)-7 ([1]; L1210): 3 fold | IC50 [1, 5]: 0.99 nM | IC50 ([1]; read-out: IC50 L1210 natural, natural enantiomer, 72 hours): ~1 nM

O=C(Nc1ccc2[nH]c(C(=O)N3C[C@@H](CCl)c4c3cc3c5c(cccc45)C(=O)NO3)cc2c1)c1cc2ccccc2[nH]1 [Compound (+)-7, N-(2-(10-(Chloromethyl)-4-oxo-5,8,9,10-tetrahydro-4H-pyrrolo[3′,2′:5,6]naphtho[1,8-de][1,2]oxazine-8-carbonyl)-1H-indol-5-yl)-1H-indole-2-carboxamide]
DNA alkylation after thiol activation (w794 DNA; incubated with 1 M L-glutathione at 37° C.): results in DNA alkylation; also recorded: slow DNA alkylation reaction | DNA alkylation (w794 DNA): No DNA alkylation; also recorded: failed to alkylate DNA

Source: patent US9586974B2, “Cyclic N-acyl O-amino phenol CBI derivative” (THE SCRIPPS RESEARCH LINSTITUTE, priority 2013, dated 2017)
